Reference: patent publication US9182409B2, “Mass spectrometry imaging method for detecting and quantifying a target molecule in a tissue sample” (priority 2011, dated 2015)

Test: Distribution and quantification of propranolol in whole-body mouse sections by MALDI mass spectrometry imaging
Assay type: in vivo
Details: 7.5 mg/kg intravenous, 20 minutes post-injection, sagittal whole-body section, TEC-normalized
Method: Male Swiss mice weighing 25-40 g (Charles River, France) were used.
The animals were sacrificed by CO2 asphyxiation at 20 minutes post-injection.
The samples (control and dosed tissue) were sectioned into 20 μm-thick layers using a CM1510S cryostat (Leica Microsystems, Nanterre, France) cooled at −26° C. The sections were then deposited on conductive ITO (indium tin oxide) slides (Bruker Daltonics, Bremen, Germany).
This matrix was prepared at a concentration of 40 mg/ml in methanol/0.1% TFA (1:1, v/v). The matrix solution was deposited using the SunCollect spraying system (SunChrome, Germany).
This range of dilutions extends from 10 pmol/μl to 0.02 pmol/μl and includes seven points.
The images were obtained using an AutoFlex Speed MALDI-TOF mass spectrometer (Bruker Daltonics, Bremen, Germany) equipped with a Smartbeam laser. The data was generated in positive reflectron mode. A total of 700 spectra were obtained for each spot with a 1000 Hz laser frequency and a 300×300 μm′ image spatial resolution on a mass range of 100 Da to 1000 Da. The FlexImaging version 2.1 software was used to reconstruct the images.

## CC(C)NCC(O)COc1cccc2ccccc12 (stereo not shown) [propranolol, Propranolol]
  total quantity of the target analyte in the brain: about 5 ng
